We go through 19 compounds from patent publication US9714249B2 (Novartis AG, priority 2013, dated 2017).

SMILES strings stand for the structures.

What is called IC50 is the midpoint of a concentration-inhibition curve.

Assay [1] deals with BRD4-NUT-fusion (Homo sapiens (Human), UniProt O60885+Q86Y26). Description: Nut-foci formation assay (HCS) in HCC2494 NUT midline carcinoma cells. The format is cell-based. To be noted: 24 hours, nuclear BRD4-NUT foci, immunofluorescence. As for the experimental part:
Compound-mediated inhibition of BRD4 activity was monitored by quantification of the number and intensity of nuclear BRD4-NUT foci using automated immunofluorescence microscopy. Briefly, 5000 cells in 20 μl fresh medium were seeded into Poly-D-Lysine-precoated 384-well plates and incubated overnight at 37° C. and 5% CO2, followed by addition of 5 μl medium containing compound dilutions at 5-fold their final intended concentration. Dose-response effects were assessed by 3-fold serial dilutions of the test compound, starting at 10 μM. […] Assay plates were imaged using the appropriate filter sets on the Cellomics VTi automated fluorescence microscopy platform (ThermoFisher Scientific) and the population average of the number of NUT-foci per nucleus is quantified using the Cellomics Spot Detection BioApplication image analysis algorithm (ThermoFisher Scientific). The effect of a particular test compound concentration on NUT-foci number and intensity is expressed as percentage of the value obtained for cells treated with vehicle only (DMSO, 0.1% final concentration), which was set as 100.

Assay [2] has as its target BRD2 (His-Brd2(60-472)) (Homo sapiens (Human), UniProt P25440). Description: TR-FRET in-vitro binding assay for BRD2. The following applies: acetyl-histone H4 peptide. As for the experimental part:
All assays were performed in 384 well microtiter plates. Each assay plate contained 8-point serial dilutions for 40 test compounds, plus 16 high- and 16 low controls. Liquid handling and incubation steps were done on an Innovadyne Nanodrop Express equipped with a robotic arm (Thermo CatX, Perkin Elmer/Caliper Twister II) and an incubator (Liconic STX40, Thermo Cytomat 2C450). The assay plates were prepared by addition of 50 nl per well of compound solution in 90% DMSO HummingBird nanodispenser (Zinsser Analytic). The assay was started by stepwise addition of 4.5 μl per well of bromo domain protein (50 mM HEPES, pH 7.5, 0.005% Tween20, 0.1% BSA, 50 mM NaCl, 45 nM His-Brd2(60-472) or 45 nM His-Brd3(20-477) or 45 nM His-Brd4(44-477) all proteins produced in-house) and 4.5 μl per well of peptide solution (50 mM HEPES, pH 7.5, 0.005% Tween20, 0.1% BSA, 50 mM NaCl, 60 nM acetyl-histone H4 (AcK 5, 8, 12, 16) (Biosyntan GmbH)). Reactions were incubated at 30° C. for 35 minutes. Subsequently 4.5 μl per well detection mix (50 mM HEPES, pH 7.5, 0.005% Tween20, 0.1% BSA, 50 mM NaCl, 3 nM Eu-labeled anti-His6 antibody, 21 nM streptavidin-allophycocyanin) were added. After 35 minutes incubation at 30° C., plates were measured in a Perkin Elmer EnVision multilabel reader. Concentrations causing 50% inhibition (1050) values were determined from percent inhibition values at different compound concentrations by non-linear regression analysis.
Test compounds were dissolved in DMSO (10 mM) and transferred into 1.4 mL flat bottom or V-shaped Matrix tubes carrying a unique 2D matrix. The stock solutions were stored at […] if not used immediately. For the test procedure the vials were defrosted and identified by a scanner whereby a working sheet was generated that guided the subsequent working steps. Compound dilutions were made in 96 well plates. This format enabled the assay of maximally 40 individual test compounds at 8 concentrations (single points) including 4 reference compounds, if desired (known BET inhibitors from the prior art, for this and other assays of the type disclosed herein). The dilution protocol included the production of “pre-dilution plates”, “master plates” and “assay plates”.
Pre-dilution plates: 96 polypropylene well plates were used as pre-dilution plates. A total of 4 pre-dilution plates were prepared including 10 test compounds each on the plate positions A1-A10, one standard compound at A11 and one DMSO control at A12. All dilution steps were done on a HamiltonSTAR robot. Master plates: 30 μL of individual compound dilutions including standard compound and controls of the 4 “pre-dilution plates” were transferred into a 384 “master plate” including the following concentrations 10000, 3003, 1000, 300, 100, 30, 10 and 3 μM, respectively in 90% of DMSO. Assay plates: Identical “assay plates” were then prepared by pipetting 50 nL each of compound dilutions of the “master plates” into 384-well “assay plates” by means of a HummingBird 384-channel dispenser. These plates were used directly for the assay which was performed in a total volume of 13.55 μL. This led to a final compound concentration of 37, 11, 3.7, 1.1, 0.37, 0.11, 0.037 and 0.011 μM and a final DMSO concentration of 0.37% in the assay. Cell Growth Inhibition Assay
Background: Time-resolved FRET reads energy transfer from a long-lived donor to a nearby acceptor.

Sequence of BRD2 (His-Brd2(60-472)) (P25440 60-472, species assumed): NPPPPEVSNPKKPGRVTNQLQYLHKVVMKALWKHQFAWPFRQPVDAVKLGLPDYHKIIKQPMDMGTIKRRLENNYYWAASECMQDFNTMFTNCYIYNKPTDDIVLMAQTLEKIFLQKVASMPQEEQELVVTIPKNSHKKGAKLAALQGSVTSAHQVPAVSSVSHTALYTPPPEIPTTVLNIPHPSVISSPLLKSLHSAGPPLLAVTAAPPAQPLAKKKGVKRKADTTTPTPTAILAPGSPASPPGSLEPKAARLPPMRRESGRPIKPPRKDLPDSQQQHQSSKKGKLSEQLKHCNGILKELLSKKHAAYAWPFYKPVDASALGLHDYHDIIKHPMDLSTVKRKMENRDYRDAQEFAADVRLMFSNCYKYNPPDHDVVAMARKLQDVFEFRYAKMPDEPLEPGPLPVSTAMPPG

With `Cc1cc(N2C(=O)c3c(C4CC4)nn(C)c3C2c2ccc(Cl)cc2)cn(C)c1=O` (centres unmarked) [Example 1, 6-(4-chlorophenyl)-3-cyclopropyl-5-(1,5-dimethyl-6-oxo-1,6-dihydropyridin-3-yl)-1-methyl-5,6-dihydropyrrolo[3,4-c]pyrazol-4(1H)-one], the IC50 was 33.3 nM in assay [1] and 32 nM in assay [2]. The corresponding values for `CNC1=C(C(=N)C2CC2)C(=O)N(c2cc(C)c(=O)n(C)c2)[C@@H]1c1ccc(Cl)cc1` [Example 2] are 20.1 nM and 22 nM.

Take `Cc1cc(N2C(=O)c3c(C4CC4)nn(CCO)c3C2c2ccc(Cl)cc2)cn(C)c1=O` (centres unmarked) [Example 3, 6-(4-chlorophenyl)-3-cyclopropyl-5-(1,5-dimethyl-6-oxo-1,6-dihydropyridin-3-yl)-1-(2-hydroxyethyl)-5,6-dihydropyrrolo[3,4-c]pyrazol-4(1H)-one]: the IC50 was found to be 49 nM in assay [1] and 42 nM in assay [2]. The corresponding values for `COCCn1nc(C2CC2)c2c1C(c1ccc(Cl)cc1)N(c1cc(C)c(=O)n(C)c1)C2=O` (centres unmarked) [Example 4, 6-(4-chlorophenyl)-3-cyclopropyl-5-(1,5-dimethyl-6-oxo-1,6-dihydropyridin-3-yl)-1-(2-methoxyethyl)-5,6-dihydropyrrolo[3,4-c]pyrazol-4(1H)-one] are 29.9 nM and 15 nM. Regarding `Cc1cc(N2C(=O)c3c(C4CC4)nn(-c4ccnn4C)c3C2c2ccc(Cl)cc2)cn(C)c1=O` (centres unmarked) [Example 5, 6-(4-chlorophenyl)-3-cyclopropyl-5-(1,5-dimethyl-6-oxo-1,6-dihydropyridin-3-yl)-1-(1-methyl-1H-pyrazol-5-yl)-5,6-dihydropyrrolo[3,4-c]pyrazol-4(1H)-one], the half-inhibitory concentration (IC50) was 138 nM in assay [1] and 74 nM in assay [2].

As to `Cc1[nH]nc2c1C(=O)N(c1cc(Cl)c(=O)n(C)c1)C2c1ccc(Cl)cc1` (centres unmarked) [Example 6, 5-(5-chloro-1-methyl-6-oxo-1,6-dihydropyridin-3-yl)-6-(4-chlorophenyl)-3-methyl-5,6-dihydropyrrolo[3,4-c]pyrazol-4(2H)-one], the IC50 in assay [1] was determined as 108 nM; in assay [2], 94 nM.

On to `COc1ncccc1-n1nc2c(c1C)C(=O)N(c1cc(Cl)c(=O)n(C)c1)C2c1ccc(Cl)cc1` (centres unmarked) [Example 7b, 5-(5-chloro-1-methyl-6-oxo-1,6-dihydropyridin-3-yl)-6-(4-chlorophenyl)-2-(2-methoxypyridin-3-yl)-3-methyl-5,6-dihydropyrrolo[3,4-c]pyrazol-4(2H)-one], for which the concentration for half-maximal inhibition (IC50) was found to be 74.4 nM in assay [1] and 32 nM in assay [2]. For `COc1ncc(-n2nc(C)c3c2C(c2ccc(Cl)cc2)N(c2cc(Cl)c(=O)n(C)c2)C3=O)cn1` (centres unmarked) [Example 8a, 5-(5-chloro-1-methyl-6-oxo-1,6-dihydropyridin-3-yl)-6-(4-chlorophenyl)-1-(2-methoxypyrimidin-5-yl)-3-methyl-5,6-dihydropyrrolo[3,4-c]pyrazol-4(1H)-one], the values for the IC50 in assay [1] and in assay [2] were 298 nM and 120 nM, respectively. In the same order, the values of `COc1ncc(-n2nc3c(c2C)C(=O)N(c2cc(Cl)c(=O)n(C)c2)C3c2ccc(Cl)cc2)cn1` (centres unmarked) [Example 8b, 5-(5-chloro-1-methyl-6-oxo-1,6-dihydropyridin-3-yl)-6-(4-chlorophenyl)-2-(2-methoxypyrimidin-5-yl)-3-methyl-5,6-dihydropyrrolo[3,4-c]pyrazol-4(2H)-one] are 58 nM and 160 nM. In the same order, the values of `Cc1nn(C)c2c1C(=O)N(c1cc(C)c(=O)n(C)c1)C2c1ccc(Cl)cc1` (centres unmarked) [Example 10, 6-(4-chlorophenyl)-5-(1,5-dimethyl-6-oxo-1,6-dihydropyridin-3-yl)-1,3-dimethyl-5,6-dihydropyrrolo[3,4-c]pyrazol-4(1H)-one] are 108 nM and 84 nM. Compound `COc1ccc(-n2nc(C)c3c2C(c2ccc(Cl)cc2)N(c2cc(C)c(=O)n(C)c2)C3=O)cc1` (centres unmarked) [Example 13, 6-(4-chlorophenyl)-5-(1,5-dimethyl-6-oxo-1,6-dihydropyridin-3-yl)-1-(4-methoxyphenyl)-3-methyl-5,6-dihydropyrrolo[3,4-c]pyrazol-4(1H)-one] displayed an IC50 in assay [2] of 97 nM. On the same count and under the same terms, next, `COc1ncc(-n2nc3c(c2C)C(=O)N(c2cc(C)c(=O)n(C)c2)C3c2ccc(Cl)cc2)c(OC)n1` (centres unmarked) [Example 14, 6-(4-chlorophenyl)-2-(2,4-dimethoxypyrimidin-5-yl)-5-(1,5-dimethyl-6-oxo-1,6-dihydropyridin-3-yl)-3-methyl-5,6-dihydropyrrolo[3,4-c]pyrazol-4(2H)-one]: 94 nM; `COc1ncc(-n2nc(C)c3c2C(c2ccc(Cl)cc2)N(c2cc(C)c(=O)n(C)c2)C3=O)cn1` (centres unmarked) [Example 21a, 6-(4-chlorophenyl)-5-(1,5-dimethyl-6-oxo-1,6-dihydropyridin-3-yl)-1-(2-methoxypyrimidin-5-yl)-3-methyl-5,6-dihydropyrrolo[3,4-c]pyrazol-4(1H)-one]: 63 nM; `COc1ncc(-n2nc3c(c2C)C(=O)N(c2cc(C)c(=O)n(C)c2)C3c2ccc(Cl)cc2)cn1` (centres unmarked) [Example 21b, 6-(4-chlorophenyl)-5-(1,5-dimethyl-6-oxo-1,6-dihydropyridin-3-yl)-2-(2-methoxypyrimidin-5-yl)-3-methyl-5,6-dihydropyrrolo[3,4-c]pyrazol-4(2H)-one]: 100 nM.

In assay [2], `Cc1cc(N2C(=O)c3c(C4CC4)nn(-c4ccnn4C)c3[C@H]2c2ccc(Cl)cc2)cn(C)c1=O` [Example 22, (R)-6-(4-chlorophenyl)-3-cyclopropyl-5-(1,5-dimethyl-6-oxo-1,6-dihydropyridin-3-yl)-1-(1-methyl-1H-pyrazol-5-yl)-5,6-dihydropyrrolo[3,4-c]pyrazol-4(1H)-one] yielded an IC50 of 160 nM. In turn, `Cc1cc(N2C(=O)c3c(C4CC4)n[nH]c3[C@H]2c2ccc(Cl)cc2)cn(C)c1=O` [Example 24, (R)-6-(4-chlorophenyl)-3-cyclopropyl-5-(1,5-dimethyl-6-oxo-1,6-dihydropyridin-3-yl)-5,6-dihydropyrrolo[3,4-c]pyrazol-4(1H)-one] had an IC50 in assay [2] of 74 nM.

In assay [2], `COc1ncccc1-n1nc(C)c2c1[C@@H](c1ccc(Cl)cc1)N(c1cc(C)c(=O)n(C)c1)C2=O` [Example 25, (R)-6-(4-chlorophenyl)-5-(1,5-dimethyl-6-oxo-1,6-dihydropyridin-3-yl)-1-(2-methoxypyridin-3-yl)-3-methyl-5,6-dihydropyrrolo[3,4-c]pyrazol-4(1H)-one] showed an IC50 of 130 nM. Consider `COc1ncccc1-n1nc2c(c1C)C(=O)N(c1cc(C)c(=O)n(C)c1)[C@@H]2c1ccc(Cl)cc1` [Example 26, (R)-6-(4-chlorophenyl)-5-(1,5-dimethyl-6-oxo-1,6-dihydropyridin-3-yl)-2-(2-methoxypyridin-3-yl)-3-methyl-5,6-dihydropyrrolo[3,4-c]pyrazol-4(2H)-one], for which the IC50 in assay [2] came to 110 nM. For the compound `Cc1[nH]nc2c1C(=O)N(c1cc(Cl)c(=O)n(C)c1)[C@@H]2c1ccc(Cl)cc1` [Example 28, (R)-5-(5-chloro-1-methyl-6-oxo-1,6-dihydropyridin-3-yl)-6-(4-chlorophenyl)-3-methyl-5,6-dihydropyrrolo[3,4-c]pyrazol-4(2H)-one], in assay [2], the IC50 is 170 nM.
